The values that follow are results of earlier work, collected in patent US20180187029A1, “COMPOSITION FOR FORMING HIGH RELEASE AND LOW FRICTION FUNCTIONAL COATINGS” (WHITFORD CORPORATION, priority 2015, published 2018).

The conditions of the series: for Density / Vapor pressure / Viscosity: 20° C.; for Surface tension: 23° C.

As for `COCCC(=O)N(C)C` [3-methoxy-N,N-dimethylpropanamide], the Density was 0.99 g/Cm3, the Vapor pressure is on record as 0.016 kPa, the Viscosity is given as 2.3 mPa · s and the Surface tension was 34.2 mN/m.

For the compound `CN1CCCC1=O` [N-methyl-2-pyrrolidone], the Density is 1.03 g/Cm3, the Vapor pressure is reported as 0.04 kPa, the Viscosity is reported as 1.8 mPa · s and the Surface tension was 38.6 mN/m.
